What is called pKi is the Ki on a negative log10 scale, so that one unit is a factor of ten. Lower therefore signals a large Ki.

What all share (assay type): tissue-based
The target of experiment [1] is Transporter (Rattus norvegicus, UniProt Q63380). Put plainly: Displacement of [3H]nisoxetine from NAT in Sprague-Dawley rat brain after 4 hrs by liquid scintillation analysis. On the technique in general: Loss of bound radioactivity is the signal in a displacement assay; it reports binding, not function.
Experiment [2] concerns the target Sodium-dependent dopamine transporter (Rattus norvegicus, UniProt P23977). The experiment is described as follows: Displacement of [3H]WIN-35428 from DAT in Sprague-Dawley rat brain after 2 hrs by liquid scintillation analysis.
Experiment [3] deals with Sodium-dependent serotonin transporter (Rattus norvegicus, UniProt P31652). Put plainly: Displacement of [3H]citalopram from SERT in Sprague-Dawley rat brain after 2 hrs by liquid scintillation analysis.

pKi: −log10 of the molar value.

Chain of Transporter (Q63380 whole entry): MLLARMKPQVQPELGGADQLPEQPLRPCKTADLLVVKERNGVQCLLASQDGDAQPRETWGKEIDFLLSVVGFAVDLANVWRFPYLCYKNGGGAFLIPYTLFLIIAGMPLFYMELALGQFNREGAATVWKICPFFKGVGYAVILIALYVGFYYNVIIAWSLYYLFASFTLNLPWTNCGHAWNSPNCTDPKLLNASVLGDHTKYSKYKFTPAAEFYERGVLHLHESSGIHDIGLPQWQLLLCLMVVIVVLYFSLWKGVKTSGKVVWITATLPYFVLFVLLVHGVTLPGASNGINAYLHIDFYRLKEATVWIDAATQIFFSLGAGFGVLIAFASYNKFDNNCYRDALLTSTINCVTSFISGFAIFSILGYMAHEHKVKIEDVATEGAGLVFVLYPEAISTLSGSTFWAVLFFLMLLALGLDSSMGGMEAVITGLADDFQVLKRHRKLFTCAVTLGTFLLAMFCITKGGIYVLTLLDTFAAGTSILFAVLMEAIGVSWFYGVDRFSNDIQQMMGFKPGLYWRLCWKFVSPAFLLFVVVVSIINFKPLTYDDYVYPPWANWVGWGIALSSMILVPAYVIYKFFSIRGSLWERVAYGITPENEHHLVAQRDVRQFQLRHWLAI
Chain of Sodium-dependent dopamine transporter (P23977 whole entry): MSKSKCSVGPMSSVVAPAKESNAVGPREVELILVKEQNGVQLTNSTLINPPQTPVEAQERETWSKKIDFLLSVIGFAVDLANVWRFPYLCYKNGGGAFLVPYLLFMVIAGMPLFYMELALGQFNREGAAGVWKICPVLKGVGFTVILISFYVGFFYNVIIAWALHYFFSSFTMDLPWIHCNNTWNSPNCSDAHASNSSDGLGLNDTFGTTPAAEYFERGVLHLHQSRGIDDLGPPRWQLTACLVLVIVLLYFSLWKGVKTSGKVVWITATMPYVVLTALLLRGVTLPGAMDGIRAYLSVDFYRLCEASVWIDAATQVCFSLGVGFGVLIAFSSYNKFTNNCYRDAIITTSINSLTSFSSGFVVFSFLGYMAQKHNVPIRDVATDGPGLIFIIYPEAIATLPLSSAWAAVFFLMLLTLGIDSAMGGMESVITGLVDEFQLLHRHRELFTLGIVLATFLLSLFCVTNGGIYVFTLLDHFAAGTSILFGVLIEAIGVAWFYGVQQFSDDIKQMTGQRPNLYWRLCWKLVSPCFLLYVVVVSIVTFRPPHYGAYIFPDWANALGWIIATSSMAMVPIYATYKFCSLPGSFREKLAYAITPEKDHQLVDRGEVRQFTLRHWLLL
Chain of Sodium-dependent serotonin transporter (P31652 whole entry): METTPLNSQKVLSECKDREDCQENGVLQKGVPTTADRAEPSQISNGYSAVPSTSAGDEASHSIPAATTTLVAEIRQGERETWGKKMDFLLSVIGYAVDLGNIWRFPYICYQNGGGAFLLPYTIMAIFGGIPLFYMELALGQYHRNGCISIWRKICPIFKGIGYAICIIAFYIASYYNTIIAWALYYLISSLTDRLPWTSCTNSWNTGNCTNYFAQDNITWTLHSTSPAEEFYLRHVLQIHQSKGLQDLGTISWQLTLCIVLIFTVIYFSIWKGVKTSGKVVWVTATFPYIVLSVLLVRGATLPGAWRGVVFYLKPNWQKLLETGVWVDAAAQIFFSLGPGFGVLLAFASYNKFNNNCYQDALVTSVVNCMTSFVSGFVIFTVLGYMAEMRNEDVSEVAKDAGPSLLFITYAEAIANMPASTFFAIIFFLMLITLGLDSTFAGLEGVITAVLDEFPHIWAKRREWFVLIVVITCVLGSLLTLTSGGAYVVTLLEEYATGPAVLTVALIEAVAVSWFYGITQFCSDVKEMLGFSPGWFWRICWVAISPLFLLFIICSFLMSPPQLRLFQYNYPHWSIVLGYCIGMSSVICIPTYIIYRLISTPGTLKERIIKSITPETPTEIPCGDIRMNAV

`Ic1ccc(O[C@@H](c2ccccc2)[C@H]2CNCCO2)cc1`: the results for the pKi in experiment [1], in experiment [2] and in experiment [3] were 5.96, 5.68 and 7.46, respectively.
`CCOc1ccccc1O[C@@H](c1ccc(I)cc1)[C@H]1CNCCO1` showed a pKi in experiment [1] of 7.24.
On the same count and under the same terms, the figure for `CCOc1ccccc1O[C@@H](c1ccc(I)cc1)[C@@H]1CNCCO1` is 7.27.
On to `Ic1cccc(O[C@@H](c2ccccc2)[C@H]2CNCCO2)c1`, for which the pKi was 5.77 in experiment [1], 5.72 in experiment [2] and 6.81 in experiment [3].
As to `Ic1ccccc1O[C@@H](c1ccccc1)[C@H]1CNCCO1`, the figures for the pKi in experiment [1], in experiment [2] and in experiment [3] were 8.08, 6.28 and 7.29, respectively.
With `Ic1ccccc1O[C@@H](c1ccccc1)[C@@H]1CNCCO1`, the pKi in experiment [1] is 9.08.
